Test results from ChEMBL document CHEMBL4049425, “Fragment-Based, Structure-Enabled Discovery of Novel Pyridones and Pyridone Macrocycles as Potent Bromodomain and Extra-Terminal Domain (BET) Family Bromodomain Inhibitors” (J Med Chem, 2017).

Key:
[1] = target: T1, Bromodomain-containing protein 4 (Homo sapiens, UniProt O60885); experiment: Inhibition of human N-terminal His6-tagged BRD4 BD1-BD2 (57 to 550 residues) expressed in EScherichia coli BL21(DE3) after 1 hr by Alexa-647-conjugated probe based TR-FRET assay
[2] = target: T1, Bromodomain-containing protein 4; experiment: Inhibition of BRD4 in human NCI-H1299 cells after 24 hrs by Bright-Glo luciferase reporter gene assay; format: cell-based
Liver [3] = experiment: Unbound intrinsic clearance in human liver microsomes; format: ADME, microsome
MX1 = experiment: Antiproliferative activity against human MX1 cells after 72 hrs by Cell Titer Glo assay; format: functional, cell-based; details: MX1, 72 h
Liver [4] = experiment: Unbound intrinsic clearance in rat liver microsomes; format: ADME, microsome
Liver [5] = experiment: Unbound intrinsic clearance in mouse liver microsomes; format: ADME, microsome
[6] = Permeability of the compound by PAMPA; format: physicochemical; details: read-out: permeability
[7] = Lipophilicity, log D of the compound; format: physicochemical; details: octanol/water
Mus musculus [8] = experiment: Fraction absorbed in portal vein of mouse at 3 mg/kg, iv or 10 mg/kg, po; format: ADME, organism-based; details: in vivo
[9] = Oral bioavailability in mouse at 10 mg/kg; format: ADME, organism-based; details: in vivo
Mus musculus [10] = experiment: Unbound plasma clearance in mouse at 3 mg/kg, iv or 10 mg/kg, po; format: ADME, organism-based; details: in vivo
[11] = Fraction unbound in mouse plasma at 1 uM after 4 hrs by LC-MS/MS analysis; format: ADME, cell-free
Mus musculus [12] = experiment: Unbound AUC in mouse at 1 mg/kg, po; format: ADME, organism-based; details: in vivo
Mus musculus [13] = experiment: Dose normalized fAUC in mouse at 3 mg/kg, iv or 10 mg/kg, po; format: ADME, organism-based; details: in vivo
Mus musculus [14] = experiment: Unbound clearance in mouse at 1 mg/kg, iv or 1 mg/kg, po; format: ADME, organism-based; details: in vivo
[15] = Oral bioavailability in mouse at 1 mg/kg; format: ADME, organism-based; details: in vivo
Mus musculus [16] = experiment: Fraction absorbed in portal vein of mouse at 1 mg/kg, iv or 1 mg/kg, po; format: ADME, organism-based; details: in vivo
Rattus norvegicus [17] = experiment: Unbound AUC in rat at 1 mg/kg, po; format: ADME, organism-based; details: in vivo
[18] = Oral bioavailability in rat at 1 mg/kg; format: ADME, organism-based; details: in vivo
Rattus norvegicus [19] = experiment: Unbound clearance in rat at 1 mg/kg, iv or 1 mg/kg, po; format: ADME, organism-based; details: in vivo
[20] = Fraction unbound in rat plasma; format: ADME, cell-free

Row | Compound | Ki [1] [µM] | EC50 [2] [µM] | CL free (Liver [3]) [L/h/kg] | EC50 (MX1) [µM] | CL free (Liver [4]) [L/h/kg] | CL free (Liver [5]) [L/h/kg] | logD [7] | further results
1 | CCS(=O)(=O)Nc1ccc2c(c1)-c1cn(C)c(=O)cc1OCCCCCc1cc(Cl)ccc1O2 | 0.0028 | 0.035 | 31 | 0.016 | 110 | 280 | 4.3 | Papp [6]: 8.9 nm/s
2 | CCOC(=O)Nc1ccc(Oc2ccccc2)c(-c2nn(C)c(=O)cc2OC)c1 | 1.1 | 4.9 |  | 4.5 |  |  |  | 
3 | CCOc1cc(=O)n(C)cc1-c1cc(NS(=O)(=O)CC)ccc1Oc1ccc(F)cc1F |  |  | < 4.3 |  | 3.6 | < 6 | 2.8 to 4.3 | FaFg (Mus musculus [8]): 0.79; bioavailability [9]: 56%; CL free (Mus musculus [10]): 16 L/h/kg; fraction unbound at 4 h, 1 µM [11]: 0.1
4 | CCOc1cc(=O)n(C)cc1-c1cc(NS(=O)(=O)CC)ccc1Oc1ccc(C#N)cc1 | 0.016 | 0.055 | < 1.6 | 0.053 | < 2.6 | < 4.6 |  | 
5 | CCS(=O)(=O)Nc1ccc2c(c1)-c1cn(C)c(=O)cc1OCCCCc1cc(F)cc(F)c1O2 |  |  | 4 |  | 19 | 42 | 2.8 to 4.3 | fAUC (Mus musculus [12]): 0.008 µg·h/mL; Papp [6]: 68 nm/s; fraction unbound at 4 h, 1 µM [11]: 0.03
6 | COc1cc(=O)n(C)nc1-c1cc(NS(C)(=O)=O)ccc1Oc1ccccc1 | 0.14 | 0.23 |  | 0.73 |  |  |  | 
7 | CCS(=O)(=O)c1ccc2c(c1)-c1cn(C)c(=O)cc1OCCCCc1ccccc1O2 | 0.0019 | 0.0067 | 7.8 | 0.01 | 32 | 52 | 2.8 to 4.3 | 
8 | CCOc1cc(=O)n(C)cc1-c1cc(S(=O)(=O)CC)ccc1Oc1ccc(F)cc1F |  | 0.066 | < 2 | 0.04 | 6.2 | 12 | 2.8 to 4.3 | FaFg (Mus musculus [8]): 0.52; bioavailability [9]: 41%; fAUC/dose (Mus musculus [13]): 0.039 µg·h/mL per mg/kg; CL free (Mus musculus [10]): 10 L/h/kg; fraction unbound at 4 h, 1 µM [11]: 0.1
9 | CCS(=O)(=O)Nc1ccc(Oc2ccc(F)cc2F)c(-c2cn(C)c(=O)cc2OCCN2CCOCC2)c1 | 0.23 | 2.2 |  | > 3 |  |  | 2.8 to 4.3 | 
10 | CCS(=O)(=O)Nc1cnc2c(c1)-c1cn(C)c(=O)cc1OCCCCc1cc(F)cc(F)c1O2 | 0.0008 | 0.0064 | < 1.7 | 0.0042 | 4.5 | 15 | 2.8 to 4.3 | fAUC (Mus musculus [12]): 0.015 µg·h/mL; CL free (Mus musculus [14]): 19 L/h/kg; bioavailability [15]: 27%; Papp [6]: 90 nm/s; FaFg (Mus musculus [16]): 0.49; fraction unbound at 4 h, 1 µM [11]: 0.12
11 | COC(=O)C[C@@H]1N=C(c2ccc(Cl)cc2)c2c(sc(C)c2C)-n2c(C)nnc21 | 0.0167 |  |  |  |  |  |  | 
12 | CCS(=O)(=O)c1ccc2c(c1)-c1cn(C)c(=O)cc1OCCCc1ccccc1O2 | 0.0073 | 0.026 | 8.9 | 0.0069 |  | 54 | 2.8 to 4.3 | 
13 | CCS(=O)(=O)c1ccc2c(c1)-c1cn(C)c(=O)cc1OCCc1ccccc1O2 | 0.1 | 0.63 | 6 | 0.71 | 10 | 20 | 2.8 to 4.3 | 
14 | CCOc1cc(=O)n(C)cc1-c1cc(NS(=O)(=O)CC)ccc1OC1CCC(F)(F)CC1 | 0.11 | 0.39 | 2.1 | 0.25 | 11 | 10 |  | 
15 | CCS(=O)(=O)Nc1ccc(Oc2ccc(F)cc2F)c(-c2cn(C)c(=O)cc2OCC(F)(F)F)c1 | 0.022 | 0.1 |  | 0.12 |  |  | 2.8 to 4.3 | 
16 | COc1cc(=O)n(C)nc1-c1cc(N)ccc1Oc1ccccc1 | 1.7 | 2.9 |  | 7.2 |  |  |  | 
17 | CCOc1cc(=O)n(C)cc1-c1cc(NS(=O)(=O)CC)ccc1Oc1ccc(Cl)cc1 | 0.0026 | 0.027 | < 3 | 0.018 | 5.3 | < 8.9 |  | 
18 | COc1cc(=O)n(C)nc1-c1cc(NC(C)=O)ccc1Oc1ccccc1 | 0.9 | 0.37 |  | 1.3 |  |  |  | 

Row | Compound | Ki [1] [µM] | EC50 [2] [µM] | CL free (Liver [3]) [L/h/kg] | EC50 (MX1) [µM] | CL free (Liver [4]) [L/h/kg] | CL free (Liver [5]) [L/h/kg] | logD [7] | further results
19 | COc1cc(=O)n(C)cc1-c1ccccc1Oc1ccccc1 | 0.45 | 2.8 |  | 1.5 |  |  |  | 
20 | CCOc1cc(=O)n(C)cc1-c1cc(NS(=O)(=O)CC)ccc1Oc1ccc(OC(F)(F)F)cc1 | 0.0055 | 0.21 | 5.7 | 0.062 | 180 | 90 |  | 
21 | CCS(=O)(=O)c1ccc2c(c1)-c1cn(C)c(=O)cc1OCCCCc1cc(Cl)ccc1O2 | 0.002 | 0.016 | 10 | 0.013 | 42 | 53 | 2.8 to 4.3 | fAUC (Mus musculus [12]): 0.041 µg·h/mL; CL free (Mus musculus [14]): 10 L/h/kg; bioavailability [15]: 41%; Papp [6]: 76 nm/s; FaFg (Mus musculus [16]): 0.44; fraction unbound at 4 h, 1 µM [11]: 0.04
22 | CCNc1cc(=O)n(C)cc1-c1cc(NS(=O)(=O)CC)ccc1Oc1ccc(F)cc1F | 0.014 | 0.14 |  | 0.03 |  |  | 2.8 to 4.3 | 
23 | CCS(=O)(=O)Nc1ccc(Oc2ccc(F)cc2F)c(-c2cn(C)c(=O)cc2OCC(C)C)c1 | 0.007 | 0.18 |  | 0.14 |  |  | 2.8 to 4.3 | 
24 | CCOc1cc(=O)n(C)cc1-c1cc(NS(=O)(=O)CC)ccc1Oc1ccc(F)cc1 | 0.0056 | 0.069 | < 2 | 0.016 | 10 | < 5.9 |  | 
25 | Cn1cc2c(cc1=O)OCCCCc1cc(Cl)ccc1Oc1ccc(CS(C)(=O)=O)cc1-2 | 0.0038 | 0.018 | 16 | 0.019 | 19 | 100 | 2.8 to 4.3 | fAUC (Mus musculus [12]): 0.029 µg·h/mL; CL free (Mus musculus [14]): 24 L/h/kg; bioavailability [15]: 68%; Papp [6]: 92 nm/s; FaFg (Mus musculus [16]): 0.79; fraction unbound at 4 h, 1 µM [11]: 0.03
26 | CCS(=O)(=O)Nc1ccc(Oc2ccccc2)c(-c2cn(C)c(=O)cc2OC)c1 | 0.0082 | 0.067 |  | 0.016 |  |  |  | 
27 | CCS(=O)(=O)Nc1ccc(Oc2ccc(F)cc2F)c(-c2cn(C)c(=O)cc2OCC(C)(C)O)c1 | 0.071 | 1.1 |  | 0.71 |  |  | 2.8 to 4.3 | 
28 | CNc1cc(=O)n(C)nc1-c1ccccc1 | 160 |  |  |  |  |  |  | 
29 | CCOc1cc(=O)n(C)cc1-c1cc(NS(=O)(=O)CC)ccc1Oc1cccnc1 | 0.017 | 0.15 | < 1.9 | 0.05 | < 3.2 | < 3.2 |  | 
30 | CCS(=O)(=O)Nc1cnc2c(c1)-c1cn(C)c(=O)cc1OCCCCc1cc(Cl)ccc1O2 | 0.0034 | 0.0093 | 3.8 | 0.0057 | 9.2 | 62 | 2.8 to 4.3 | fAUC (Mus musculus [12]): 0.12 µg·h/mL; fAUC (Rattus norvegicus [17]): 0.005 µg·h/mL; bioavailability [18]: 19%; CL free (Mus musculus [14]): 6.1 L/h/kg; bioavailability [15]: 70%; Papp [6]: 72 nm/s; CL free (Rattus norvegicus [19]): 50 L/h/kg; FaFg (Mus musculus [16]): 0.76; fraction unbound at 4 h, 1 µM [11]: 0.06; fraction unbound [20]: 0.12
31 | COc1cc(=O)n(C)cc1-c1cc(NS(C)(=O)=O)ccc1Oc1ccccc1 | 0.058 | 0.077 |  | 0.13 |  |  |  | 
32 | CCOc1cc(=O)n(C)cc1-c1cc(NS(=O)(=O)CC)ccc1Oc1ccccc1 | 0.0044 | 0.039 | 4 | 0.0047 | 180 | 5.5 |  | 
33 | CCOc1cc(=O)n(C)cc1-c1cc(NS(=O)(=O)CC)cnc1Oc1ccc(F)cc1F | 0.0087 | 0.045 |  | 0.032 |  |  | 2.8 to 4.3 | 
34 | CCOc1cc(=O)n(C)cc1-c1cc(CS(C)(=O)=O)ccc1Oc1ccc(F)cc1F | 0.12 | 0.23 |  | 0.14 |  |  | 2.8 to 4.3 | 
35 | CCNC(=O)Nc1ccc(Oc2ccccc2)c(-c2nn(C)c(=O)cc2OC)c1 | 1.9 | 2.8 |  | 13 |  |  |  | 
36 | CCS(=O)(=O)Nc1ccc(Oc2ccc(F)cc2F)c(-c2cn(C)c(=O)cc2OC2COC2)c1 | 0.009 | 0.048 | 4.6 | 0.025 | < 2.5 | 9 | 2.8 to 4.3 | FaFg (Mus musculus [8]): 0.3; bioavailability [9]: 20%; fAUC/dose (Mus musculus [13]): 0.026 µg·h/mL per mg/kg; CL free (Mus musculus [10]): 8.6 L/h/kg; fraction unbound at 4 h, 1 µM [11]: 0.2
